From US6653300B2, “Pyrazole compounds useful as protein kinase inhibitors” (Vertex Pharmaceuticals Incorporated, priority 2000, dated 2003)
Where two headings read alike, the source gives them in different places.

Experiments:
GSK-3β (AA 1-420) = target: T1, GSK-3β (AA 1-420) (Homo sapiens, UniProt P49841); test: Ki determination for the inhibition of GSK-3 (coupled enzyme system); type: biochemical; conditions: 20 μM ATP, 20 nM GSK-3β, 30° C.
T1 construct: GSK-3β (AA 1-420)
Method in brief: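 GSK-3β (AA 1-420, 20 nM) was run in a pyruvate kinase/LDH-coupled NADH assay in 100 mM HEPES pH 7.5, 10 mM MgCl2, 25 mM NaCl, 1 mM DTT, 1.5% DMSO, with 300 μM phosphopeptide substrate. Compound (0.002–30 μM) was preincubated 10 min at 30° C, then 20 μM ATP was added.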

human Src kinase = target: T2, human Src kinase (Homo sapiens, UniProt P12931); test: SRC inhibition assay (radioactivity-based or spectrophotometric assay); type: biochemical; conditions: recombinant human Src kinase, assay A or B
T2 construct: full length recombinant human Src kinase (from Upstate Biotechnology, cat. no. 14-117); purchased Upstate Biotechnology 14-117; host or cells: baculo viral cells
T2 sequence (P12931 whole entry): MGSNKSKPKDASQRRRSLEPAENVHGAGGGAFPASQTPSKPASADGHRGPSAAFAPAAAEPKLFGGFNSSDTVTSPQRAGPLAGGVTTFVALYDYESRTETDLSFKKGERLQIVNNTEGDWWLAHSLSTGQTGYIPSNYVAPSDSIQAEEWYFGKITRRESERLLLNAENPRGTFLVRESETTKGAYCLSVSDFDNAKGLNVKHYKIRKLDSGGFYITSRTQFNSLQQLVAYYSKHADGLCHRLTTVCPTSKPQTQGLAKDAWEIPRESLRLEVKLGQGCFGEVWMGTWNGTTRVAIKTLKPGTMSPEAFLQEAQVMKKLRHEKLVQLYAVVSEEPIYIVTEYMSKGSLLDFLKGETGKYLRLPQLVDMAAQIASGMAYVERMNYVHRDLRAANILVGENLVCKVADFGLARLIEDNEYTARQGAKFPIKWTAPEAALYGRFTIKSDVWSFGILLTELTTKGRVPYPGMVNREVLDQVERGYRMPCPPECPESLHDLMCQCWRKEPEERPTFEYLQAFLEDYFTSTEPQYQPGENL
Experimental: The compounds were evaluated as inhibitors of human Src kinase using either a radioactivity-based assay or spectrophotometric assay. The compounds were assayed as inhibitors of full length recombinant human Src kinase (from Upstate Biotechnology, cat. no. 14-117) expressed and purified from baculo viral cells. […] P-0275). […] In a typical assay, all the reaction components with the exception of ATP were pre-mixed and aliquoted into assay plate wells. […] The assay plate was incubated at 30° C. for 10 min before initiating the reaction with ^33P-ATP. After 20 min of reaction, the reactions were quenched with 150 μl of 10% trichloroacetic acid (TCA) containing 20 mM Na3PO4. The quenched samples were then transferred to a 96-well filter plate (Whatman, UNI-Filter GF/F Glass Fiber Filter, cat no. 7700-3310) installed on a filter plate vacuum manifold. Filter plates were washed four times with 10% TCA containing 20 mM Na3PO4 and then 4 times with methanol. 200 μl of scintillation fluid was then added to each well. The plates were sealed and the amount of radioactivity associated with the filters was quantified on a TopCount scintillation counter. The radioactivity incorporated was plotted as a function of the inhibitor concentration. The data was fitted to a competitive inhibition kinetics model to get the Ki for the compound. The ADP produced from ATP by the human recombinant Src kinase-catalyzed phosphorylation of poly Glu-Tyr substrate was quanitified using a coupled enzyme assay (Fox et al (1998) Protein Sci 7, 2249). In this assay one molecule of NADH is oxidised to NAD for every molecule of ADP produced in the kinase reaction. The disappearance of NADH can be conveniently followed at 340 nm. […] In a typical assay, all the reaction components with the exception of ATP were pre-mixed and aliquoted into assay plate wells. […] The absorbance change at 340 nm with time, the rate of the reaction, was monitored on a molecular devices plate reader. The data of rate as a function of the inhibitor concentration was fitted to competitive inhibition kinetics model to get the Ki for the compound.

Aurora-2 = target: T3, Aurora-2 (Homo sapiens, UniProt O14965); test: Ki determination for the inhibition of Aurora-2 (coupled enzyme assay); type: biochemical; conditions: 70 nM Aurora-2, 30° C.
T3 sequence (O14965 1-403): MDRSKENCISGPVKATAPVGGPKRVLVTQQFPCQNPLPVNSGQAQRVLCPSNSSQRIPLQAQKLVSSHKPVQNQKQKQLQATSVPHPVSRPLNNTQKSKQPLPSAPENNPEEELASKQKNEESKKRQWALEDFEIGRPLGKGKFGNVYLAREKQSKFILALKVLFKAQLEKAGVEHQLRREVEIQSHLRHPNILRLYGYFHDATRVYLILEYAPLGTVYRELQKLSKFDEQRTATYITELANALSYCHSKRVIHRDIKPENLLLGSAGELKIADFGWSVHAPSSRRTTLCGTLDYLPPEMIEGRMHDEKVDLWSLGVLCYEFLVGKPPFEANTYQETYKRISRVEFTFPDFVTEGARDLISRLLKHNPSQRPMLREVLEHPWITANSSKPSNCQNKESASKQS
Method in brief: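 Ki came from reaction rates plotted against inhibitor concentration, with rates taken as A340 decrease over 5 min at 30° C. Enzyme (70 nM final) was added after 10 min compound preincubation; stock buffer held […], 800 μM LRRASLG, PK/LDH coupling, pH 7.5.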

T1 sequence (P49841 whole entry, the tested form may be a part): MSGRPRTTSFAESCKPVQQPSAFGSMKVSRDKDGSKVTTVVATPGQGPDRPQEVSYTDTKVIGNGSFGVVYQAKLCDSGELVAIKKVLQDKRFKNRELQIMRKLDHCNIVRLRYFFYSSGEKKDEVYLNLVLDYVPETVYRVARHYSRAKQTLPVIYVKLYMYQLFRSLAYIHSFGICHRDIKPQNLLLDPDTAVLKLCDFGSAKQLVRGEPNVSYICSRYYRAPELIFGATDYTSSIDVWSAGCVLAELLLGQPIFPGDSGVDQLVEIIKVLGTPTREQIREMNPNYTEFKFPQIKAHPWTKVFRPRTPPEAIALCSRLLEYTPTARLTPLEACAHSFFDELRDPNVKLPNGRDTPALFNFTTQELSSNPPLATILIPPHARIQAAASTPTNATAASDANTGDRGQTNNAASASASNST

Compound	melting point	Ki (GSK-3β (AA 1-420)) [nM]	Ki (human Src kinase; read-out: Ki value on SRC) [nM]	Ki (Aurora-2) [nM]	Ki (human Src kinase; read-out: Ki value for SRC) [nM]
Fc1ccc(Sc2nc(Nc3cc(C4CC4)[nH]n3)c3ccccc3n2)c(F)c1 [IIa-28, (5-Cyclopropyl-2H-pyrazol-3-yl)-[2-(2,4-difluorophenylsulfanyl)-quinazolin-4-yl]-amine]	250 to 253 °C	< 100	< 100	< 100	
Clc1cccc(Sc2nc(Nc3cc(C4CC4)[nH]n3)c3ccccc3n2)c1Cl [IIa-30, (5-Cyclopropyl-2H-pyrazol-3-yl)-[2-(2,3-dichlorophenylsulfanyl)-quinazolin-4-yl]-amine]	250 to 252 °C	< 100	< 100	< 100	
Clc1cccc(Sc2nc(Nc3cc(C4CC4)[nH]n3)c3ccccc3n2)c1 [IIa-31, [2-(3-Chlorophenylsulfanyl)-quinazolin-4-yl]-(5-cyclopropyl-2H-pyrazol-3-yl)-amine]	235 to 238 °C	< 100	< 100	< 100	
Clc1ccccc1Sc1nc(Nc2cc(C3CC3)[nH]n2)c2ccccc2n1 [IIa-32, [2-(2-Chlorophenylsulfanyl)-quinazolin-4-yl]-(5-cyclopropyl-2H-pyrazol-3-yl)-amine]	255 to 257 °C	< 100	< 100	< 100	
CC(=O)Nc1ccc(Sc2nc(Nc3cc(C)n[nH]3)c3ccc(OCCCN4CCOCC4)cc3n2)cc1 [IIa-45, [2-(4-Acetamidophenylsulfanyl)-7-(3-morpholin-4-yl-propoxy)-quinazolin-4-yl]-(5-methyl-2H-pyrazol-3-yl)-amine]	153 °C (dec.)	1000 to 7000		< 100	1000 to 6000
Cc1cc(Nc2nc(Sc3ccc(NS(=O)(=O)C(C)C)cc3)nc3ccccc23)n[nH]1 [IIa-48, [2-(4-Isopropanesulfonylamino-phenylsulfanyl)-quinazolin-4-yl]-(5-methyl-2H-pyrazol-3-yl)-amine]	294 to 297 °C	100 to 1000		< 100	1000 to 6000
CCS(=O)(=O)Nc1ccc(Sc2nc(Nc3cc(C)[nH]n3)c3ccccc3n2)cc1 [IIa-55, [2-(4-Ethylsulfonylamino-phenylsulfanyl)-quinazolin-4-yl]-(5-methyl-2H-pyrazol-3-yl)-amine]	279 to 280 °C	100 to 1000		< 100	1000 to 6000
Cc1cc(Nc2nc(Sc3ccc(C(=O)NCCN4CCOCC4)cc3)nc3ccccc23)n[nH]1 [IIa-65, (5-Methyl-2H-pyrazol-3-yl)-{2-[4-(2-morpholin-4-yl-ethylcarbamoyl)-phenylsulfanyl]-quinazolin-4-yl}-amine]	246 to 248 °C	1000 to 7000		100 to 1000	1000 to 6000
Cc1cc(Nc2nc(Sc3ccc(NC(=O)CN(C)C)cc3)nc3ccccc23)n[nH]1 [IIa-68, {2-[4-(2-Dimethylamino-acetylamino)-phenylsulfanyl]-quinazolin-4-yl}-(5-methyl-2H-pyrazol-3-yl)-amine]	241 to 243 °C	1000 to 7000		< 100	1000 to 6000
Cc1cc(Nc2nc(Sc3ccc(NC(=O)CCN(C)C)cc3)nc3ccccc23)n[nH]1 [IIa-71, {2-[4-(3-Dimethylamino-propionylamino)-phenylsulfanyl]-quinazolin-4-yl}-(5-methyl-2H-pyrazol-3-yl)-amine]	280 °C (dec.)	1000 to 7000		< 100	1000 to 6000
CC(=O)Nc1ccc(Sc2nc(Nc3cc(C)[nH]n3)c3ccc(O)cc3n2)cc1 [IIa-74, [2-(4-Acetamidophenylsulfanyl)-7-hydroxy-quinazolin-4-yl]-(5-methyl-2H-pyrazol-3-yl)-amine]	246 to 248 °C	1000 to 7000		< 100	1000 to 6000
CNCC(=O)Nc1ccc(Sc2nc(Nc3cc(C)[nH]n3)c3ccccc3n2)cc1 [IIa-77, {2-[4-(2-Methylamino-acetylamino)-phenylsulfanyl]-quinazolin-4-yl}-(5-methyl-2H-pyrazol-3-yl)-amine]	242 to 244 °C	1000 to 7000		< 100	1000 to 6000
c1ccc2cc(Oc3nc(Nc4cc(C5CC5)[nH]n4)c4ccccc4n3)ccc2c1 [IIb-1, (5-Cyclopropyl-2H-pyrazol-3-yl)-[2-(naphthalen-2-yloxy)-quinazolin-4-yl]-amine]	327 to 328 °C	< 100	< 100	< 100	
Cc1cccc(Oc2nc(Nc3cc(C4CC4)[nH]n3)c3ccccc3n2)c1 [IIb-5, (5-Cyclopropyl-2H-pyrazol-3-yl)-[2-(3-methylphenoxy)-quinazolin-4-yl]-amine]	283 to 284 °C	< 100	< 100	< 100	
CN(Cc1cccnc1)c1nc(Nc2cc(C3CC3)[nH]n2)c2ccccc2n1 [IIc-3]	177 °C	< 100	< 100	< 100	
Cc1cc(Nc2nc(NCC3CCCCC3)nc3ccccc23)n[nH]1 [IIc-8, (2-Cyclohexylmethylamino-quinazolin-4-yl)-(5-methyl-2H-pyrazol-3-yl)-amine]	211 °C	< 100	< 100	< 100	
Cc1cc(Nc2nc(NCc3cccnc3)nc3ccccc23)n[nH]1 [IIc-10, (5-Methyl-2H-pyrazol-3-yl)-[2-(pyridin-3-ylmethylamino)-quinazolin-4-yl]-amine]	218 °C	< 100	< 100	< 100	
Cc1cccc(Nc2nc(Nc3cc(C4CC4)[nH]n3)c3ccccc3n2)c1 [IIc-19, (5-Cyclopropyl-2H-pyrazol-3-yl)-[2-(3-methylphenylamino)-quinazolin-4-yl]-amine]	117 °C	100 to 1000	< 100	< 100	
c1ccc2c(Nc3cc(C4CC4)[nH]n3)nc(Nc3ccc4c(c3)CCC4)nc2c1 [IIc-21, (5-Cyclopropyl-2H-pyrazol-3-yl)-[2-(indan-5-ylamino)-quinazolin-4-yl]-amine]	199 to 204 °C	< 100	< 100	< 100	
CC(=O)Nc1ccc(Nc2nc(Nc3cc(C4CC4)[nH]n3)c3ccccc3n2)cc1C [IIc-23, [2-(4-Acetamido-3-methylphenylamino)-quinazolin-4-yl]-(5-cyclopropyl-2H-pyrazol-3-yl)-amine]	> 188 °C (dec.)	100 to 1000	< 100	< 100	
Cc1cc(Nc2nc(Nc3cc(C4CC4)[nH]n3)c3ccccc3n2)ccc1Cl [IIc-24, [2-(4-Chloro-3-methylphenylamino)-quinazolin-4-yl]-(5-cyclopropyl-2H-pyrazol-3-yl)-amine]	244 to 246 °C	< 100	< 100	< 100	
Cc1ccc(Nc2nc(Nc3cc(C4CC4)[nH]n3)c3ccccc3n2)cc1C [IIc-33, (5-Cyclopropyl-2H-pyrazol-3-yl)-[2-(3,4-dimethylphenylamino)-quinazolin-4-yl]-amine]	245 to 246 °C	100 to 1000	< 100	< 100	
